Laboratory results from US9783537B2, “3-(4-ethylnylphenyl) pyridopyrimidinone compounds and process for preparation thereof useful as potential anticancer agents” (Council of Scientific & Industrial Research, priority 2013, dated 2017).
Read-outs that look alike come from different tables or passages of the source.

Experiments:
Type in all cases: cell-based, human
MOLT-4 = assay: SRB 48 h growth assay, Leukemia MOLT-4; settings: MOLT-4, Leukemia; for GI50 / CC50: Homo sapiens; for CC50: read-out: Log10 LC50 (converted)
COLO 205 = assay: SRB 48 h growth assay, Colon COLO 205; settings: COLO 205, Colon; for GI50 / CC50: Homo sapiens; for CC50: read-out: Log10 LC50 (converted)
HCC-2998 = assay: SRB 48 h growth assay, Colon HCC-2998; settings: HCC-2998, Colon; for GI50 / CC50: Homo sapiens; for CC50: read-out: Log10 LC50 (converted)
HCT-15 = assay: SRB 48 h growth assay, Colon HCT-15; settings: HCT-15, Colon; for GI50 / CC50: Homo sapiens; for CC50: read-out: Log10 LC50 (converted)
HT-29 = assay: SRB 48 h growth assay, Colon HT-29; settings: HT-29, Colon; for GI50 / CC50: Homo sapiens; for CC50: read-out: Log10 LC50 (converted)
SF-268 = assay: SRB 48 h growth assay, CNS SF-268; settings: SF-268, CNS; for GI50 / CC50: Homo sapiens; for CC50: read-out: Log10 LC50 (converted)
SF-539 = assay: SRB 48 h growth assay, CNS SF-539; settings: SF-539, CNS; for GI50 / CC50: Homo sapiens; for CC50: read-out: Log10 LC50 (converted)
MALME-3M = assay: SRB 48 h growth assay, Melanoma MALME-3M; settings: for GI50 / CC50: Homo sapiens; for CC50: read-out: Log10 LC50 (converted)
SK-MEL-28 = assay: SRB 48 h growth assay, Melanoma SK-MEL-28; settings: SK-MEL-28, Melanoma; for GI50 / CC50: Homo sapiens; for CC50: read-out: Log10 LC50 (converted)
OVCAR-5 = assay: SRB 48 h growth assay, Ovarian OVCAR-5; settings: OVCAR-5, Ovarian; for GI50 / CC50: Homo sapiens; for CC50: read-out: Log10 LC50 (converted)
CAKI-1 = assay: SRB 48 h growth assay, Renal CAKI-1; settings: CAKI-1, Renal; for GI50 / CC50: Homo sapiens; for CC50: read-out: Log10 LC50 (converted)
SN12C = assay: SRB 48 h growth assay, Renal SN12C; settings: for GI50 / CC50: Homo sapiens; for CC50: read-out: Log10 LC50 (converted)
UO-31 = assay: SRB 48 h growth assay, Renal UO-31; settings: UO-31, Renal; for GI50 / CC50: Homo sapiens; for CC50: read-out: Log10 LC50 (converted)
[1] = read-out: Growth Inhibition GI50
[2] = read-out: Log10 GI50 (converted)

C#Cc1ccc(-n2c(/C=C/c3ccc4ccccc4n3)nc3ncccc3c2=O)cc1 [4t, (E)-3-(4-Ethynylphenyl)-2-(2-(quinolin-2-yl)vinyl)pyrido[2,3-d]pyrimidin-4(3H)-one]
GI50 (MOLT-4; [1]): 0.45 µM | GI50 (MOLT-4; [2]): 0.457 µM | CC50 (MOLT-4): > 100 µM | Log10 TGI50 (MOLT-4): >−4.00 | Log10 TGI50 (COLO 205): −6.13 | GI50 (COLO 205; [1]): 0.3 µM | GI50 (COLO 205; [2]): 0.302 µM | CC50 (COLO 205): 3.63 µM | Log10 TGI50 (HCC-2998): −5.92 | GI50 (HCC-2998; [1]): 0.34 µM | GI50 (HCC-2998; [2]): 0.347 µM | CC50 (HCC-2998): 6.31 µM | Log10 TGI50 (HCT-15): −5.88 | GI50 (HCT-15; [1]): 0.32 µM | GI50 (HCT-15; [2]): 0.331 µM | Log10 TGI50 (HT-29): −5.96 | GI50 (HT-29; [1]): 0.36 µM | GI50 (HT-29; [2]): 0.372 µM | CC50 (HT-29): 4.27 µM | GI50 (SF-268; [1]): 0.38 µM | GI50 (SF-268; [2]): 0.389 µM | CC50 (SF-268): > 100 µM | Log10 TGI50 (SF-268): −5.74 | GI50 (SF-539; [1]): 0.2 µM | GI50 (SF-539; [2]): 0.204 µM | Log10 TGI50 (SF-539): −6.29 | Log10 TGI50 (MALME-3M): −5.50 | GI50 (MALME-3M; [1]): 1.21 µM | GI50 (MALME-3M; [2]): 1.2 µM | CC50 (MALME-3M): 8.32 µM | GI50 (SK-MEL-28; [1]): 1.05 µM | GI50 (SK-MEL-28; [2]): 1.05 µM | Log10 TGI50 (SK-MEL-28): −5.51 | GI50 (OVCAR-5; [1]): 0.31 µM | GI50 (OVCAR-5; [2]): 0.309 µM | Log10 TGI50 (OVCAR-5): −5.97 | Log10 TGI50 (CAKI-1): −5.81 | GI50 (CAKI-1; [1]): 0.32 µM | GI50 (CAKI-1; [2]): 0.324 µM | CC50 (CAKI-1): > 100 µM | Log10 TGI50 (SN12C): −5.67 | GI50 (SN12C; [1]): 0.39 µM | GI50 (SN12C; [2]): 0.389 µM | CC50 (SN12C): > 100 µM | GI50 (UO-31; [1]): 0.31 µM | GI50 (UO-31; [2]): 0.316 µM | CC50 (UO-31): 6.92 µM | Log10 TGI50 (UO-31): −5.78

C#Cc1ccc(-n2c(/C=C/c3ccc(O)cc3)nc3ncccc3c2=O)cc1 [4b, (E)-3-(4-Ethynylphenyl)-2-(4-hydroxystyryl)pyrido[2,3-d]pyrimidin-4(3H)-one]
GI50 (MOLT-4; [1]): 7.35 µM | GI50 (MOLT-4; [2]): 7.41 µM | CC50 (MOLT-4): > 100 µM | Log10 TGI50 (MOLT-4): >−4.00 | Log10 TGI50 (COLO 205): >−4.00 | GI50 (COLO 205; [1]): > 100 µM | GI50 (COLO 205; [2]): > 100 µM | CC50 (COLO 205): > 100 µM | Log10 TGI50 (HCC-2998): >−4.00 | GI50 (HCC-2998; [1]): 25.7 µM | GI50 (HCC-2998; [2]): 25.7 µM | CC50 (HCC-2998): > 100 µM | Log10 TGI50 (HCT-15): >−4.00 | GI50 (HCT-15; [1]): 4.65 µM | GI50 (HCT-15; [2]): 4.68 µM | CC50 (HCT-15): > 100 µM | Log10 TGI50 (HT-29): >−4.00 | GI50 (HT-29; [1]): 52.8 µM | GI50 (HT-29; [2]): 52.5 µM | CC50 (HT-29): > 100 µM | GI50 (SF-268; [1]): 5.24 µM | GI50 (SF-268; [2]): 5.25 µM | CC50 (SF-268): > 100 µM | Log10 TGI50 (SF-268): −4.17 | GI50 (SF-539; [1]): 2.12 µM | GI50 (SF-539; [2]): 2.14 µM | CC50 (SF-539): > 74.1 µM | Log10 TGI50 (SF-539): −5.21 | Log10 TGI50 (MALME-3M): >−4.00 | GI50 (MALME-3M; [1]): 5.13 µM | GI50 (MALME-3M; [2]): 5.13 µM | CC50 (MALME-3M): > 100 µM | GI50 (SK-MEL-28; [1]): 5.97 µM | GI50 (SK-MEL-28; [2]): 6.03 µM | CC50 (SK-MEL-28): > 100 µM | Log10 TGI50 (SK-MEL-28): >−4.00 | GI50 (OVCAR-5; [1]): 32.3 µM | GI50 (OVCAR-5; [2]): 32.4 µM | CC50 (OVCAR-5): > 100 µM | Log10 TGI50 (OVCAR-5): >−4.00 | Log10 TGI50 (CAKI-1): >−4.00 | GI50 (CAKI-1; [1]): 4.15 µM | GI50 (CAKI-1; [2]): 4.17 µM | CC50 (CAKI-1): > 100 µM | Log10 TGI50 (SN12C): >−4.00 | GI50 (SN12C; [1]): 5.16 µM | GI50 (SN12C; [2]): 5.13 µM | CC50 (SN12C): > 100 µM | GI50 (UO-31; [1]): 3.79 µM | GI50 (UO-31; [2]): 3.8 µM | CC50 (UO-31): > 100 µM | Log10 TGI50 (UO-31): −4.47

C#Cc1ccc(-n2c(/C=C/c3cc(OC)c(OC)c(OC)c3)nc3ncccc3c2=O)cc1 [4q, (E)-3-(4-Ethynylphenyl)-2-(3,4,5-trimethoxystyryl)pyrido[2,3-d]pyrimidin-4(3H)-one]
Log10 TGI50 (COLO 205): −4.92 | GI50 (COLO 205; [1]): 3.19 µM | GI50 (COLO 205; [2]): 3.16 µM | CC50 (COLO 205): > 100 µM | Log10 TGI50 (HCC-2998): >−4.00 | GI50 (HCC-2998; [1]): 27.5 µM | GI50 (HCC-2998; [2]): 27.5 µM | CC50 (HCC-2998): > 100 µM | Log10 TGI50 (HCT-15): >−4.00 | GI50 (HCT-15; [1]): 5.58 µM | GI50 (HCT-15; [2]): 5.62 µM | CC50 (HCT-15): > 100 µM | Log10 TGI50 (HT-29): −4.82 | GI50 (HT-29; [1]): 3.92 µM | GI50 (HT-29; [2]): 3.89 µM | CC50 (HT-29): > 100 µM | GI50 (SF-268; [1]): 5.33 µM | GI50 (SF-268; [2]): 5.37 µM | CC50 (SF-268): > 100 µM | Log10 TGI50 (SF-268): −4.01 | GI50 (SF-539; [1]): 4.57 µM | GI50 (SF-539; [2]): 4.57 µM | CC50 (SF-539): > 100 µM | Log10 TGI50 (SF-539): −4.42 | Log10 TGI50 (MALME-3M): −4.15 | GI50 (MALME-3M; [1]): 9.74 µM | GI50 (MALME-3M; [2]): 9.77 µM | CC50 (MALME-3M): > 100 µM | GI50 (SK-MEL-28; [1]): 34.6 µM | GI50 (SK-MEL-28; [2]): 34.7 µM | CC50 (SK-MEL-28): > 100 µM | Log10 TGI50 (SK-MEL-28): >−4.00 | GI50 (OVCAR-5; [1]): > 100 µM | GI50 (OVCAR-5; [2]): > 100 µM | CC50 (OVCAR-5): > 100 µM | Log10 TGI50 (OVCAR-5): >−4.00 | Log10 TGI50 (CAKI-1): >−4.00 | GI50 (CAKI-1; [1]): 6.07 µM | GI50 (CAKI-1; [2]): 6.03 µM | CC50 (CAKI-1): > 100 µM | Log10 TGI50 (SN12C): >−4.00 | GI50 (SN12C; [1]): 20.5 µM | GI50 (SN12C; [2]): 20.4 µM | CC50 (SN12C): > 100 µM | GI50 (UO-31; [1]): 4.09 µM | GI50 (UO-31; [2]): 4.07 µM | CC50 (UO-31): > 100 µM | Log10 TGI50 (UO-31): >−4.00
